According to EP3398601A1, “NICOTINAMIDE FOR TREATING DYSLIPIDEMIA” (priority 2017, dated 2018):
Entries after “also recorded” stand apart in the source; their conditions may differ.

Legend:
NaPi2b [1] = test: Intestinal (ileum) NaPi2b expression, immune fluorescence and RNA, in 5/6 nephrectomized DBA/2 mice; type: in vivo, DBA/2 mouse
Method: Further, the effect of nicotinamide treatment on intestinal NaPi2b protein expression in a mouse model (DBA/2 mouse) was investigated.
(§1) For this purpose, 5/6 nephrectomized DBA/2 mice were used as model for vascular calcification. The mice were treated with nicotinamide (NA) in a concentration of 600 µg/mL in the drinking water.
Bars between columns indicate significant between groups differences (ANOVA with Tukey Post Test, p<0.05).

NaPi2b [2] = test: Renal NaPi2b protein expression, immune fluorescence, in 5/6 nephrectomized DBA/2 mice; details: 5/6 nephrectomized DBA/2 mice (CKD); Fig. 4
FGF23 = FGF23 in DBA/2 mice; type: in vivo
Method: as §1

[3] = S-phosphate and fractional phosphate elimination in DBA/2 mice; type: in vivo; details: for fractional phosphate elimination (in words): DBA/2 mice
Method: as §1

Apo(a) = details: oral treatment with 1% nicotinic acid in the chow; female tg-Apo(a) mice; cited from earlier work
Lp(a) [4] = test: Lp(a) plasma levels (Apo(a) ELISA) in transgenic Apo(a) mice given the substance in chow, cross-over design; details: for reduction of Lp(a): 1% orally as food supplement, compared to baseline levels
Method: In the transgenic Apo(a) mice (tg-Apo(a)) Apo(a) is expressed mainly in female mice.
Levels of Apo(a) were determined by means of ELISA and were expressed as Lp(a) in mg/dl as each molecule Apo(a) binds one molecule of LDL to form Lp(a).

Lp(a) [5] = details: literature values (Carlson, 1989; Kotani, 2017); cited from earlier work
[6] = given in combination with the phosphate binder sevelamer; cited from earlier work
NaPi2b [7] = details: intraperitoneal administration; cited from earlier work
GPR109A receptor = GPR109A receptor (Homo sapiens, UniProt Q8TDS4); details: cited from earlier work
GPR109A receptor, sequence (Q8TDS4 whole entry): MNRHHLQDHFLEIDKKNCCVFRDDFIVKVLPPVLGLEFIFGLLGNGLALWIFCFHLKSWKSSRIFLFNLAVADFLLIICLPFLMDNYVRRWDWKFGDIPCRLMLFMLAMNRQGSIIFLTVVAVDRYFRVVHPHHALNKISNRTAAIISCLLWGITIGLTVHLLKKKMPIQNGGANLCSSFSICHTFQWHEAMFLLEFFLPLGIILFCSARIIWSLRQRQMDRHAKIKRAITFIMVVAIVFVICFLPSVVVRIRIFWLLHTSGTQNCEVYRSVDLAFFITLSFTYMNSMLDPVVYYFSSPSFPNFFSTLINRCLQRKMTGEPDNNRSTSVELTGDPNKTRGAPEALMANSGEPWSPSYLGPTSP

[8] = intraperitoneal administration; cited from earlier work

SMILES | intestinal NaPi2b protein / cotransporter content of the small intestine (in words) (NaPi2b [1]; 5/6 nephrectomized DBA/2 mice, NA 600 µg/mL in the drinking water, Fig. 3) | intestinal NaPi2b protein / cotransporter content of the small intestine (in words) (NaPi2b [1]; 5/6 nephrectomized DBA/2 mice, NA 600 µg/mL in the drinking water, Fig. 3, listed as Mg) | intestinal NaPi2b protein / cotransporter content of the small intestine (in words) (NaPi2b [1]; 5/6 nephrectomized DBA/2 mice, NA 600 µg/mL in the drinking water, Fig. 3, listed as magnesium carbonate (Mg)) | increase of cotransporter expression (intestinal NaPi2b) (NaPi2b [1]; 5/6 nephrectomized DBA/2 mice, treatment for 7 weeks, Fig. 3) | renal NaPi2b protein expression (in words) (NaPi2b [2]) | FGF23 (in words) (FGF23) | fractional phosphate elimination (in words) [3] | reduction in plasma Apo(a) protein (Apo(a)) | reduction of Lp(a) (Lp(a) [4]; after two weeks of treatment) | reduction of Lp(a) (Lp(a) [4]; after week 1) | reduces Lp(a) (Lp(a) [5]) | NaPi2b-RNA of the small intestine (in words) (NaPi2b [1]; DBA/2 mice, NA 600 µg/mL in the drinking water) | treatment of hyperphosphatemia (in words) [6] | Lp(a) plasma levels lower compared to nicotinic acid (Lp(a) [4]; after 2 weeks of treatment, Fig. 1 legend) | expression of NaPi2b (in words) (NaPi2b [7]) | binding to GPR109A receptor (in words) (GPR109A receptor) | S-phosphate (in words) ([3]; effect only in healthy DBA/2 mice with high phosphate diet (phosphorus content 1.03 % (w/w)), NA 600 µg/mL in the drinking water) | gastrointestinal absorption of phosphate (in words) [8]
O=C(O)O [magnesium carbonate] | strongly enhances | notable increase | strong enhancement | 10 -fold | no significant difference compared to baseline; also recorded: no significant effects | reduction | reduction |  |  |  |  |  |  |  |  |  |  | 
O=C(O)c1cccnc1 [nicotinic acid] |  |  |  |  |  |  |  | 43% | 50% | 37% | up to 35% |  |  |  |  |  |  | 
NC(=O)c1cccnc1 [nicotinamide] |  |  |  |  |  | reduction | reduction |  | 77% | 67% |  | did not show any influence | ineffective | more than 50% | blocks | does not bind or otherwise affect | decrease | inhibits
